The supplement of paper PMC11451515

Assays:
Conditions in all cases: 48 h
[1] = system: SEM cells; experiment: AUC of viability dose-response curve (% viability x log10 dose units); higher = less sensitive
Outline: (§1)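 Over 48 h at 37°C, leukemia cells in 1536-well plates (500 or 1000 cells/well), adapted to each medium, received library compounds in DMSO at 11 threefold doses from 47 μM to 0.79 nM. CellTiter-Glo One luminescence, normalised per plate to DMSO and cell-free wells, was fitted by a four-parameter log-logistic function of log10 dose. The area under the curve was then integrated by trapezoidal rule, after scaling curves above full viability and removing those that failed quality control.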

[2] = system: NOMO1; experiment: as above
Outline: as §1

[3] = system: P12-Ichikawa; experiment: as above
Outline: as §1

[4] = system: SEM cells; experiment: cell viability relative to DMSO control; higher = less cytotoxic
Outline: (§2)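 Leukemia cells (NOMO1 or SEM, 500 cells/well; P12-Ichikawa, 1000 cells/well) were seeded in 5 μl in 1536-well plates after at least four passages of adaptation to each medium. They received library compounds in DMSO by pin dosing, 11 threefold points from 47 μM to 0.79 nM. Luminescence with CellTiter-Glo One was read after 48 h at 37°C. Viability is stated per plate relative to DMSO wells, with cell-free wells as background.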

[5] = system: NOMO1; experiment: as above
Outline: as §2

[6] = system: P12-Ichikawa; experiment: as above
Outline: as §2

[7] = RPMI 5 mM glucose + 10% dialyzed FBS
[8] = HPLM + 10% dialyzed FBS, 0.000781 µM
[9] = HPLM + 10% dialyzed FBS, 0.00234 µM
[10] = HPLM + 10% dialyzed FBS, 0.00702 µM
[11] = HPLM + 10% dialyzed FBS, 0.0211 µM
[12] = HPLM + 10% dialyzed FBS, 0.0632 µM
[13] = HPLM + 10% dialyzed FBS, 0.19 µM
[14] = HPLM + 10% dialyzed FBS, 0.569 µM
[15] = HPLM + 10% dialyzed FBS, 1.71 µM
[16] = HPLM + 10% dialyzed FBS, 5.12 µM
[17] = HPLM + 10% dialyzed FBS, 15.4 µM
[18] = HPLM + 10% dialyzed FBS, 46.1 µM
[19] = RPMI 5 mM glucose + 10% FBS, 0.000781 µM
[20] = RPMI 5 mM glucose + 10% FBS, 0.00234 µM
[21] = RPMI 5 mM glucose + 10% FBS, 0.00702 µM
[22] = RPMI 5 mM glucose + 10% FBS, 0.0211 µM
[23] = RPMI 5 mM glucose + 10% FBS, 0.0632 µM
[24] = RPMI 5 mM glucose + 10% FBS, 0.19 µM
[25] = RPMI 5 mM glucose + 10% FBS, 0.569 µM
[26] = RPMI 5 mM glucose + 10% FBS, 1.71 µM
[27] = RPMI 5 mM glucose + 10% FBS, 5.12 µM
[28] = RPMI 5 mM glucose + 10% FBS, 15.4 µM
[29] = RPMI 5 mM glucose + 10% FBS, 46.1 µM
[30] = RPMI 5 mM glucose + 10% dialyzed FBS, 0.000781 µM
[31] = RPMI 5 mM glucose + 10% dialyzed FBS, 0.00234 µM
[32] = RPMI 5 mM glucose + 10% dialyzed FBS, 0.00702 µM
[33] = RPMI 5 mM glucose + 10% dialyzed FBS, 0.0211 µM
[34] = RPMI 5 mM glucose + 10% dialyzed FBS, 0.0632 µM
[35] = RPMI 5 mM glucose + 10% dialyzed FBS, 0.19 µM
[36] = RPMI 5 mM glucose + 10% dialyzed FBS, 0.569 µM
[37] = RPMI 5 mM glucose + 10% dialyzed FBS, 1.71 µM
[38] = RPMI 5 mM glucose + 10% dialyzed FBS, 5.12 µM
[39] = RPMI 5 mM glucose + 10% dialyzed FBS, 15.4 µM
[40] = RPMI 5 mM glucose + 10% dialyzed FBS, 46.1 µM

SMILES: CCOC(=O)c1c(/C(C#N)=C\N)c2ccc(Cl)c(Cl)c2n1C
- AUC of viability dose-response curve ([1]; HPLM + 10% dialyzed FBS): 412
- AUC of viability dose-response curve ([1]; RPMI 5 mM glucose + 10% FBS): 427
- AUC of viability dose-response curve [1, 7]: 408
- AUC of viability dose-response curve ([2]; HPLM + 10% dialyzed FBS): 442
- AUC of viability dose-response curve ([2]; RPMI 5 mM glucose + 10% FBS): 395
- AUC of viability dose-response curve [2, 7]: 407
- AUC of viability dose-response curve ([3]; HPLM + 10% dialyzed FBS): 432
- AUC of viability dose-response curve ([3]; RPMI 5 mM glucose + 10% FBS): 412
- AUC of viability dose-response curve [3, 7]: 429
- cell viability [4, 8]: 85.8%
- cell viability [4, 9]: 86.1%
- cell viability [4, 10]: 85.2%
- cell viability [4, 11]: 96.9%
- cell viability [4, 12]: 76.5%
- cell viability [4, 13]: 94.1%
- cell viability [4, 14]: 95.5%
- cell viability [4, 15]: 81.7%
- cell viability [4, 16]: 92.6%
- cell viability [4, 17]: 83.4%
- cell viability [4, 18]: 57.4%
- cell viability [4, 19]: 86.7%
- cell viability [4, 20]: 99.2%
- cell viability [4, 21]: 89.9%
- cell viability [4, 22]: 94.1%
- cell viability [4, 23]: 84.6%
- cell viability [4, 24]: 89.7%
- cell viability [4, 25]: 97.8%
- cell viability [4, 26]: 94.4%
- cell viability [4, 27]: 89.6%
- cell viability [4, 28]: 84%
- cell viability [4, 29]: 62%
- cell viability [4, 30]: 80%
- cell viability [4, 31]: 97.7%
- cell viability [4, 32]: 81.8%
- cell viability [4, 33]: 87.8%
- cell viability [4, 34]: 71.6%
- cell viability [4, 35]: 89.3%
- cell viability [4, 36]: 102%
- cell viability [4, 37]: 84.4%
- cell viability [4, 38]: 94.8%
- cell viability [4, 39]: 75.2%
- cell viability [4, 40]: 76.9%
- cell viability [5, 8]: 89.9%
- cell viability [5, 9]: 95.7%
- cell viability [5, 10]: 94.3%
- cell viability [5, 11]: 95%
- cell viability [5, 12]: 72.6%
- cell viability [5, 13]: 101%
- cell viability [5, 14]: 91.1%
- cell viability [5, 15]: 87.2%
- cell viability [5, 16]: 94%
- cell viability [5, 17]: 95.8%
- cell viability [5, 18]: 103%
- cell viability [5, 19]: 81.9%
- cell viability [5, 20]: 80.7%
- cell viability [5, 21]: 82.5%
- cell viability [5, 22]: 92%
- cell viability [5, 23]: 80.4%
- cell viability [5, 24]: 77.3%
- cell viability [5, 25]: 79.7%
- cell viability [5, 26]: 88%
- cell viability [5, 27]: 80.8%
- cell viability [5, 28]: 78.6%
- cell viability [5, 29]: 95.3%
- cell viability [5, 30]: 90.7%
- cell viability [5, 31]: 90.1%
- cell viability [5, 32]: 87.7%
- cell viability [5, 33]: 91.4%
- cell viability [5, 34]: 79.2%
- cell viability [5, 35]: 77%
- cell viability [5, 36]: 86%
- cell viability [5, 37]: 86.8%
- cell viability [5, 38]: 87.2%
- cell viability [5, 39]: 77.6%
- cell viability [5, 40]: 101%
- cell viability [6, 8]: 90.1%
- cell viability [6, 9]: 94.9%
- cell viability [6, 10]: 84.9%
- cell viability [6, 11]: 97.5%
- cell viability [6, 12]: 91.7%
- cell viability [6, 13]: 92.2%
- cell viability [6, 14]: 92.1%
- cell viability [6, 15]: 91.6%
- cell viability [6, 16]: 84.7%
- cell viability [6, 17]: 83%
- cell viability [6, 18]: 91.7%
- cell viability [6, 19]: 88.1%
- cell viability [6, 20]: 88.7%
- cell viability [6, 21]: 85.5%
- cell viability [6, 22]: 94.8%
- cell viability [6, 23]: 83.2%
- cell viability [6, 24]: 86.3%
- cell viability [6, 25]: 81.1%
- cell viability [6, 26]: 91%
- cell viability [6, 27]: 82.8%
- cell viability [6, 28]: 81.2%
- cell viability [6, 29]: 87.4%
- cell viability [6, 30]: 84.5%
- cell viability [6, 31]: 86.2%
- cell viability [6, 32]: 89.9%
- cell viability [6, 33]: 92.8%
- cell viability [6, 34]: 90.6%
- cell viability [6, 35]: 96.9%
- cell viability [6, 36]: 87.9%
- cell viability [6, 37]: 88.7%
- cell viability [6, 38]: 89%
- cell viability [6, 39]: 92.8%
- cell viability [6, 40]: 90.8%
